Test results from paper PMC7180452, “Purine and Purine Isostere Derivatives of Ferrocene: An Evaluation of ADME, Antitumor and Electrochemical Properties” (Molecules, 2020).

Experiments:
[1] = test system: metastatic colorectal adenocarcinoma (SW620); test: In vitro antiproliferative activity, SW620; type: cell-based, human; settings: SW620 cells
Method: (§1) Antiproliferative activity of compounds 11a−11c, 12a−12c, 13a−13c, 14a−14c, 15a−15c, 16a, 23a−23c, 24a−24c, 25a−25c, 34a−34c and 35a−35c was evaluated in vitro on four human tumor cell lines (American Type Culture Collection, Manassas, VA, USA): metastatic colorectal adenocarcinoma (SW620), ductal pancreatic adenocarcinoma (CFPAC-1), hepatocellular carcinoma (HepG2) and cervical carcinoma (HeLa) as well as normal skin fibroblasts (HFF).

[2] = test system: ductal pancreatic adenocarcinoma (CFPAC-1); test: In vitro antiproliferative activity, CFPAC-1; type: cell-based, human; settings: CFPAC-1 cells
Method: as §1

[3] = test system: cervical carcinoma (HeLa); test: In vitro antiproliferative activity, HeLa; type: cell-based, human; settings: HeLa cells
Method: as §1

[4] = Square-wave and cyclic voltammetry on glassy carbon electrode; type: physicochemical; settings: SWV, 0.5 mol/L NaClO4, pH 9, vs Ag/AgCl
Text: The electrochemical properties of 6-chloro-7-deazapurine and 6-chloropurine derivatives of ferrocene 11c, 13a and 15b on a glassy carbon electrode were studied using cyclic (CV) and square-wave voltammetry (SWV) in aqueous electrolyte solutions over a wide pH range. The pH was varied from 2 to 10 in order to determine the effect of pH on the voltammograms (net peak currents and potentials). […] The pH of the solution affects the voltammetric response of this compound, i.e., the oxidation of evaluated compounds 11c, 13a and 15b is strongly dependent on it.
The forward (if) and backward (ib) components of the net response (Δi = if − ib) are shown as well (inset in Figure 2). […] The peak P1 occurs in all supporting electrolytes (i.e., at 2 ≤ pH ≤ 10), while the peak P2 is only observed at pH ≥ 9 (see Figure 1). The potential of peak P1 is pH-independent. Comparing to the literature data, peak P1 can be ascribed to the following charge transfer reaction [Fe^II(C5H5)2] ⇌ [Fe^III(C5H5)2]^+ + e^− [44, 48].
All chemicals used in the experiments were of the best grade commercially available (Sigma-Aldrich) and were used without further purification. Stock standard solutions of compounds 11c, 13a, 15b (c = 2.0 × 10^−3 mol/L) and 6-chloropurine (c = 1.2 × 10^−2 mol/L) were prepared from dry pure substances in dimethyl sulfoxide (DMSO, p.a.), purchased from Kemika (Zagreb, Croatia). Stock standard solution of ethynyl ferrocene (c = 1.1 × 10^−2 mol/L) was prepared from dry pure substance in ethanol (Kemika). For the supporting electrolyte, analytical grade NaClO4 (Kemika) was used. Water was deionized by the Millipore Milli-Q system to the resistivity ≥ 18 MΩcm. Voltammetric measurements were carried out using the computer-controlled electrochemical system „PGSTAT 101“ (Eco-Chemie, Utrecht, The Netherlands), controlled by the electrochemical software “NOVA 1.5”. A three-electrode system (BioLogic, Claix, France) with glassy carbon electrode (GCE) of 3 mm in diameter as a working electrode, Ag/AgCl (3 mol/L NaCl) as a reference electrode and a platinum wire as a counter electrode were used. All potentials were expressed versus Ag/AgCl (3 mol/L NaCl) reference electrode. The supporting electrolyte (0.5 mol/L NaClO4), adjusted to the desired pH value, was placed in the electrochemical cell and the required aliquot of the standard analyte solution was added. The solution in the electrochemical cell was degassed with high purity nitrogen for 10 min before measurement, and the nitrogen blanket was maintained thereafter. Before each run, the glassy carbon working electrode was polished with diamond suspension in spray (grain size 6 µm) and rinsed with ethanol and deionized water. All experiments were performed at room temperature. The presented results are reported as the mean value of three independent measurements.

[5] = Turbidimetric kinetic solubility assay; settings: for Kinetic Solubility: PBS, 1% DMSO, 37 °C, 2 h, estimated range; for Solubility classification: kinetic solubility, in words
Method: The turbidimetric solubility assay, which allows a rapid determination of the kinetic solubility of newly synthesized compounds using small amounts of their DMSO solutions, was used to assess the kinetic solubility [38].
The compounds’ DMSO stock solutions in concentration of 10 mM were serially diluted by factor 3.3×, 3×, 3.3× and 3× in DMSO. Prepared solutions were spiked into phosphate-buffered saline (PBS, 100 mM) to obtain final compounds’ concentrations of 100, 30, 10, 3 and 1 µM (3 µL of prepared dilutions were spiked to 297 µL of PBS, with final DMSO content of 1%, v/v). All compounds were tested in two replicas per concentration. Prepared solutions were incubated at 37 °C for 2 h with gentle shaking. Blank solutions were also prepared by spiking DMSO in PBS buffer (1% of DMSO, v/v). […] Compound/control samples are compared to the blank solution. […] Results were expressed as an estimated solubility range (lower and upper bound).

IC50 [1]	IC50 [2]	IC50 [3]	Oxidation peak P1 potential (ferrocene) [4]	Oxidation peak P2 potential (triazole) [4]	Kinetic Solubility [5]	Solubility classification [5]	Compound
9.07 ± 1.21 µM	35 ± 5.44 µM	27.7 ± 3.23 µM	~ 0.4 V	~ 1.1 V	3 to 10 µM		Clc1ncnc2c1ccn2Cc1cn(-[c-]2cccc2)nn1.[Fe+2].c1cc[cH-]c1 [Compound 11c, 4-Chloro-7-[1-(1-ferrocenyl-1,2,3-triazol-1-yl)methyl]-7H-pyrrolo[2,3-d]pyrimidine]
14.4 ± 3.02 µM	22.8 ± 4.31 µM	25.2 ± 4.31 µM	~ 0.4 V	~ 1.1 V	>100 µM	high solubility	Clc1ncnc2c1ncn2Cc1cn(C[c-]2cccc2)nn1.[Fe+2].c1cc[cH-]c1 [Compound 13a, 6-Chloro-9-[1-(1-ferrocenymethyl-1,2,3-triazol-4-yl)methyl]-9H-purine]
15.5 ± 3.24 µM	28.6 ± 2.68 µM	28.97 ± 0.09 µM	~ 0.4 V	~ 1.1 V	>100 µM	high solubility	CC([c-]1cccc1)n1cc(Cn2cnc3ncnc(Cl)c32)nn1.[Fe+2].c1cc[cH-]c1 (centres unmarked) [Compound 15b, 6-Chloro-7-[1-(1-ferrocenyl-1-methylmethyl-1,2,3-triazol-4-yl)methyl]-7H-purine]
